Structures are written as SMILES.

For data set [1], the system named is human liver microsomes (CYP3A4, CYP1A2, CYP2C9). Kind of data set: Identification of the P450 isozyme involved in the activation (human microsomes with isozyme inhibitors). It is filed as in vitro ADME. The settings on record: 0-100 μM inhibitor, 250 μM prodrug. The method, then:
Prodrugs are evaluated for human microsome-catalyzed conversion to parent compound in the absence and presence of specific inhibitors of three major P450 isozymes: ketoconazole (CYP3A4), furafylline (CYP1A2), and sulfaphenazole (CYP2C9).
Methods: Reactions (0.5 ml @ 37° C.) consist of 0.2 M KH2PO4, 13 mM glucose-6-phosphate, 2.2 mM NADP^+, 1 unit of glucose-6-phosphate dehydrogenase, 0-2.5 mg/ml human microsomal protein (In Vitro Technologies, Inc.), 250 μM prodrug, and 0-100 μM P450 isozyme inhibitor. Reactions are stopped by addition of methanol to a concentration of 60%, filtered ([…]), and lyophilized. Samples are resuspended in HPLC buffer (10 mM phosphate pH 5.5, 2.5 mM octyl-triethyl-ammonium), loaded onto a YMC C8 HPLC column (250×4.6 mm), and eluted with a methanol gradient to 80%. Formation of parent drug is confirmed by co-elution with an authentic parent drug standard.

The test system of data set [2] is parent cell line (AHH-1 TK+/−) which does not express CYP3A4. Briefly: Compound 1.1 activity in parent lymphoblastoid cells not expressing CYP3A4 (colony forming ability). Particulars: non-CYP3A4 expressing cells, 24 hours exposure, 14 days culture. The method, then:
Following drug exposure, cells are diluted to 10 cells/ml and cultured for 14 days to determine colony forming ability.

The nature of data set [3]: Liver delivery of Etoposide following administration to rat. Format: in vivo. As to the method:
At appropriate time points following drug administration, animals are lightly anesthetized with halothane. The peritoneal cavity is then opened and a blood sample is obtained from the abdominal vena cava and the liver freeze-clamped and excised.
The blood samples are heparinized and plasma is prepared. Plasma samples (100 μL) are mixed with perchloric acid or methanol, vortexed, and then clarified by centrifugation. The supernatants are analyzed for Etoposide by HPLC as described in Example A.
Livers are immediately homogenized in 3 volumes of 10% perchloric acid (w/w), and the extracts clarified by centrifugation at 2500×g (5 minutes). The resulting supernatants are removed and neutralized with 0.3 volumes of 3M KOH/3M KHCO3. The neutralized liver extracts are then spun in an Eppendorf microfuge at 10,000 rpm (20 minutes, 4° C.). The supernatants are analyzed for Etoposide as described above.

Data set [4] in a line: Tissue homogenate activity (activation in homogenates from various tissues). The settings on record: 100 μM, 1 hour. Format: in vitro ADME, rat. As to the method: Compound 1.1 is tested for activation in homogenates from various tissues to assess the specificity-of liver activation.
Methods: Rats are anesthetized under halothane and tissues including liver, kidney, brain, heart, stomach, spleen, muscle, lung, and testis are excised and frozen in liquid nitrogen. Tissues are then homogenized in 1 to 3 volumes of 50 mM Tris-HCl, 154 mM KCL, 1 mM EGTA, pH 7.4. The homogenates are centrifuged at 10,000 rpm and 4° C. for 30 minutes and the supernatant recovered. Liver cytosol is prepared by centrifuging the crude liver extract for 1 hour at 40,000 rpm and […]. Reaction mixtures consist of 50 mM KH2PO4 pH 7.4, 13 mM glucose-6-phosphate, 2 mM NADP+, 10 units of glucose-6-phosphate dehydrogenase, 100 μM Compound 1.1 and tissue homogenate or liver cytosol at a protein concentration of 8.5 mg/ml. Reactions are incubated at 37° C. Aliquots are taken after 0 and 1 hour of incubation, and extracted with 60% methanol. The methanolic extracts are centrifuged at 14,000 rpm, and filtered prior to analysis by HPLC.

The subject of a further data set is rat hepatocytes. Kind of data set: Activation of Compound 1.1 to Etoposide in rat hepatocytes. Format: in vitro ADME. The method, then:
Methods: Hepatocytes were prepared from fed Sprague-Dawley rats (250-300 g) according to the procedure of Berry and Friend (Berry, M. N., Friend, D. S. J. Cell Biol. 43, 506-520 (1969)) as modified by Groen (Groen, A. K. et al. Eur J. Biochem 122, 87-93 (1982)). Hepatocytes (75 mg wet weight/ml) were incubated in 1 ml Krebs-bicarbonate buffer containing 10 mM glucose, and 1 mg/ml BSA. Incubations were carried out in a 95% oxygen, 5% carbon dioxide atmosphere in closed, 50-ml Falcon tubes submerged in a rapidly shaking water bath (37° C.). A 10 mM stock solution of Compound 1.1 was prepared in methanol, and then diluted into the cell suspension or Krebs-bicarbonate buffer to yield a final concentration of 100 μM. […] The cell extracts in the acid layers were neutralized, and the intracellular prodrug metabolite content analyzed by reverse phase HPLC with use of a Beckman Ultrasphere ODS column (4.6×150 mm). The column was equilibrated with 20 mM potassium phosphate buffer, pH 6.3, and eluted with a gradient to 100% methanol. Detection was at 284 nm. Peaks on the chromatograms were identified by comparison to the retention times and spectra of standards of prodrug and parent compound.

The target of data set [5] is T1, recombinant human P450-isozyme, CYP3A4 (Homo sapiens, UniProt P08684).
T1 construct: purchased Panvera Corp., Madison, Wis; host or cells: baculovirus-infected insect cells (microsomes, Baculosomes)
T1 sequence (P08684 whole entry): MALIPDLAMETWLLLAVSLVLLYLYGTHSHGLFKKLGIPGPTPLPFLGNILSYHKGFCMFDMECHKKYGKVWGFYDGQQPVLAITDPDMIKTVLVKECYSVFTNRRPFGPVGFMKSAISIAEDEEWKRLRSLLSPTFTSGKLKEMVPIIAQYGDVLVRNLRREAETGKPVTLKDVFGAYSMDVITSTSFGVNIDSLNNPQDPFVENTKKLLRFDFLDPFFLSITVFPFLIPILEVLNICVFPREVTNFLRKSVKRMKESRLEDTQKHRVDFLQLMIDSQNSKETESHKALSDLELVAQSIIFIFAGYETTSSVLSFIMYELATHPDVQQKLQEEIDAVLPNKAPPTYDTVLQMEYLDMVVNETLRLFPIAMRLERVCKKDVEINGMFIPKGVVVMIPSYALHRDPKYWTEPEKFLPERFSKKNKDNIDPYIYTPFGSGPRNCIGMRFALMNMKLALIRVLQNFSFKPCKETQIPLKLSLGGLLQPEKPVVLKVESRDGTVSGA
Kind of data set: Activation of Compound 1.1 in vitro by recombinant CYP3A4. Format: in vitro ADME. The settings on record: 1 mg/ml Baculosomes, 100 μM Compound 1.1, 2 mM NADPH, 37° C. As to the method:
Activation of Compound 1.1 was evaluated in reactions containing microsomes from baculovirus-infected insect cells co-expressing recombinant human P450-isozyme, CYP3A4, and cytochrome P450 reductase (Panvera Corp., Madison, Wis.).
Methods: Reaction mixtures (0.5 ml @ 37° C.) consisted of 1 mg/ml Baculosomes, 100 μM Compound 1.1, 2 mM NADPH and 100 mM KH2PO4 buffer. Reactions were incubated for 30 minutes in an Eppendorf Thermomixer 5436 at 37° C., and reciprocal shaking speed setting 6. 100 μl aliquots were collected at 0, 10, 20 and 30 minutes and quenched with 1.5 volumes of methanol. These extracts were spun for 10 minutes at 14,000 rpm in an Eppendorf microfuge and the supernatants were lyophilized to remove the methanol. The dried supernatant pellets were resuspended in 100 μl 20 mM potassium phosphate buffer, pH 6.3, clarified by centrifugation, and analyzed by HPLC as described in Example A.

The next data set concerns rat embryos in culture. The settings on record: rat embryos in culture (Teratology 39, 31-37 (1989)); cited from earlier work.

For the compound `Nc1ccc(S(=O)(=O)Nc2ccnn2-c2ccccc2)cc1` [sulfaphenazole], the “inhibition of formation of parent drug by P450 isozyme inhibitor” value (“inhibition of formation of parent drug” below) in data set [1] is “no significant inhibition”.
`COc1cc(C2c3cc4c(cc3C(OC3OC5COC(C)OC5C(O)C3O)C3COC(=O)C23)OCO4)cc(OC)c1OP1(=O)OCCC(c2ccncc2)O1` (stereo not shown) [Compound 1.1, 4′-O-(2-oxo-4-pyridyl-1,3,2-dioxaphosphorinan-2-yl)-etoposide]: the “cytotoxicity (inhibition of cell colony formation)” value in data set [2] is “substantial reduction cytotoxic activity”. Also, in data set [3] (in vivo, relative to free etoposide), the liver specificity result was “enhanced liver specificity”. Further, in data set [3] (rat, oral or intravenous, compared to administration of free Etoposide), the “area under the curve of Etoposide in liver” value is “higher”. Further, the “levels of Etoposide in plasma” value in data set [3] (rat, oral or intravenous, compared to free Etoposide) was “Reduced levels”. Also, the “activation in crude rat liver homogenate” value in data set [4] (8.5 mg/ml protein, 37° C.) is “depletion of the prodrug and formation of parent compound”. Moreover, the “activation in other tissue homogenates” value in data set [4] (kidney, brain, heart, stomach, spleen, muscle, lung, testis) is reported as “fails to result in appreciable activation”. Further, the “activation in liver cytosol” value in data set [4] (liver cytosol without microsomal P450 enzymes, 37° C.) is reported as “does not result in activation”. In addition, the “stability in cell-free incubations” value in the data set on rat hepatocytes (Krebs-bicarbonate buffer without cells, 100 μM, 37° C.) was “stable”. The “intracellular levels of Etoposide” value in the data set with rat hepatocytes (rat hepatocytes, 100 μM Compound 1.1, 2-hour time point) is “approximately 40 nmoles/gram of cells”. Moreover, the “activation to Etoposide phosphate and free Etoposide” value with rat hepatocytes (rat hepatocytes, 100 μM, 37° C.) is listed as “activated to Etoposide”. Moreover, the “rate of Etoposide phosphate formation” value in data set [5] is 386 nmoles Etoposide phosphate/nmole CYP3A4/h.
For the compound `CC(=O)N1CCN(c2ccc(OCC3COC(Cn4ccnc4)(c4ccc(Cl)cc4Cl)O3)cc2)CC1` (stereo not shown) [Ketoconazole, ketoconazole], the figures for the “inhibition of formation of parent drug” value in data set [1] and in data set [1] (listed as ketoconozole) were “inhibit the formation parent drug in a dose-dependent fashion” and “inhibition of drug formation”, respectively.
Regarding `Cc1nc2c([nH]1)c(=O)n(C)c(=O)n2Cc1ccco1` [furafylline], in data set [1], the “inhibition of formation of parent drug” value was “no significant inhibition”.
With `C=CC(=O)c1ccccc1` [Phenyl vinyl ketone], the teratogenic activity entry in the data set on rat embryos in culture is on record as “lacks teratogenic activity”.

These data come from patent US7303739B2, “Prodrugs for liver specific drug delivery” (Metabasis Therapeutics, Inc., priority 1999, dated 2007).
